Measured values reported in US12264158B2, “Protein kinase MKK4 inhibitors for promoting liver regeneration or reducing or preventing hepatocyte death” (HEPAREGENIX GMBH, priority 2018, dated 2025).

Each compound was assayed against T1, MEKK2 (Homo sapiens, UniProt Q9Y2U5) (assay: Radiometric protein kinase assay, MEKK2). Conditions: substrate Casein, ATP 0.2 μM; read-out: MEKK2, potency derived from IC50-values.
T1 construct: purchased ProQinase #0583-0000-1
T1 sequence (Q9Y2U5 1-619): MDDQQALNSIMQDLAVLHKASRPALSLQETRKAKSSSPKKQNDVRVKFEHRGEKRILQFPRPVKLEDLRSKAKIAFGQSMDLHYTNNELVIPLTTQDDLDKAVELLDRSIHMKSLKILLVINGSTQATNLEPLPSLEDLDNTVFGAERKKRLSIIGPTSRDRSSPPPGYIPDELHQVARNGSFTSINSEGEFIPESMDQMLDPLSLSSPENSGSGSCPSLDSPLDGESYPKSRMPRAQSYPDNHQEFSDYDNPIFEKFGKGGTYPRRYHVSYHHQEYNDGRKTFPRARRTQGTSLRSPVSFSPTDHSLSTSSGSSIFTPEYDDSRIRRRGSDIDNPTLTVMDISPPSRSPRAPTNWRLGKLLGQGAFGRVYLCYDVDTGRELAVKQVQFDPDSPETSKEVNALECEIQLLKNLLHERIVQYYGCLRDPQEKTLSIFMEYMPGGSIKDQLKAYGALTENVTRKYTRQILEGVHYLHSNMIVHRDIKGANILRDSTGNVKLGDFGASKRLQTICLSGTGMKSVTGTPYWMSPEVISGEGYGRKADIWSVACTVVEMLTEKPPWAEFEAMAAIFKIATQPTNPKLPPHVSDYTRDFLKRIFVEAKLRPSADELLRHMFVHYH
Format: biochemical
Procedure: (§1) A radiometric protein kinase assay was used for measuring the kinase activity of the respective protein kinases. All kinase assays were performed in 96-well polypropylene plates. After the reactions were stopped, the assay mixtures were transferred to 96-well MSFC filter-plates (Millipore). The reaction mix was passed through the filter membrane by aspiration, the membrane was washed 3 times with 150 mM H3PO4, once with ethanol, dried and liquid scintillation cocktail was added. Radioactivity was determined by counting of the samples in a Microbeta multiwell scintillation counter (Wallac).

| IC50 | Structure (SMILES) |
| --- | --- |
| 1000 to 10000 nM | CCCS(=O)(=O)Nc1c(F)ccc(C(=O)c2n[nH]c3ncc(-c4ccc(C(C)C)cc4)cc23)c1F [Example 65, N-(2,6-difluoro-3-(5-(4-isopropyl-phenyl)-1H-pyrazolo[3,4-b]pyridine-3-carbonyl)phenyl)propane-1-sulfonamide] |
| 1000 to 10000 nM | CCCS(=O)(=O)Nc1c(F)ccc(C(=O)c2n[nH]c3ncc(-c4ccc(F)cc4C)cc23)c1F [Example 66, N-(2,6-difluoro-3-(5-(4-fluoro-2-methylphenyl)-1H-pyrazolo[3,4-b]pyridine-3-carbonyl)phenyl) propane-1-sulfonamide] |
| 500 to 1000 nM | CCCS(=O)(=O)Nc1c(F)ccc(C(=O)c2n[nH]c3ncc(-c4ccc(S(N)(=O)=O)cc4C)cc23)c1F [Example 70, 4-(3-(2,4-difluoro-3-(propylsulfonamido)benzoyl)-1H-pyrazolo[3,4-b]pyridin-5-yl)-3-methylbenzenesulfonamide] |
| > 10000 nM | CCCS(=O)(=O)Nc1c(F)ccc(C(=O)c2n[nH]c3ncc(-c4cnc(C(F)(F)F)nc4)cc23)c1F [Example 71, N-(2,6-difluoro-3-(5-(2-(trifluoromethyl)pyrimidin-5-yl)-1H-pyrazolo[3,4-b]pyridine-3-carbonyl)phenyl)propane-1-sulfonamide] |
| 1000 to 10000 nM | CCCS(=O)(=O)Nc1c(F)ccc(C(=O)c2n[nH]c3ncc(-c4ccc(Cl)cc4C)cc23)c1F [Example 72] |
| 1000 to 10000 nM | CCCS(=O)(=O)Nc1c(F)ccc(C(=O)c2n[nH]c3ncc(-c4ccc(C5N=NN=N5)cc4)cc23)c1F [Example 74, N-(3-(5-(4-(1H-tetrazol-5-yl)phenyl)-1H-pyrazolo[3,4-b]pyridine-3-carbonyl)-2,6-difluorophenyl)propane-1-sulfonamide] |
| 1000 to 10000 nM | O=C(c1ccc(F)c(NS(=O)(=O)Cc2ccccc2)c1F)c1n[nH]c2ncc(-c3ccc(C4N=NN=N4)cc3)cc12 [Example 75, N-(3-(5-(4-(1H-tetrazol-5-yl)phenyl)-1H-pyrazolo[3,4-b]pyridine-3-carbonyl)-2,6-difluorophenyl)-1-phenylmethanesulfonamide] |

The compounds below were run against T2, MKK4 active (Homo sapiens, UniProt P45985) (assay: Radiometric protein kinase assay, MKK4 active). Conditions: substrate JNK1 KRKR, ATP 0.2 μM, read-out: MKK4, potency derived from IC50-values.
T2 construct: purchased ProQinase #0948-0000-1
T2 sequence (P45985 1-399): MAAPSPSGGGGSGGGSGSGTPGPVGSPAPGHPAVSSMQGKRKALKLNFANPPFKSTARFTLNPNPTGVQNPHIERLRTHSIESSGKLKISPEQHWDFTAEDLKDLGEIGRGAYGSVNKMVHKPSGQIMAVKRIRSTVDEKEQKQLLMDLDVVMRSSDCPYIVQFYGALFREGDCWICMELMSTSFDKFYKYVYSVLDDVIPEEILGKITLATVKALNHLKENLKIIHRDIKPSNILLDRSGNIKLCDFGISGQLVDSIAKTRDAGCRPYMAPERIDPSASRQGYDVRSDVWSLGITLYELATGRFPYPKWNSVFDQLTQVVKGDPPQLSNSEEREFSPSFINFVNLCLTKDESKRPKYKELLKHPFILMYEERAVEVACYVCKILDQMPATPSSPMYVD
Format: biochemical
Procedure: as §1

| IC50 | Structure (SMILES) |
| --- | --- |
| < 500 nM | CS(=O)(=O)Nc1c(F)ccc(C(=O)c2n[nH]c3ncc(-c4ccc(-c5nnn[nH]5)cc4)cc23)c1F [Example 54a, N-[2,6-difluoro-3-[5-[4-(1H-tetrazol-5-yl)phenyl]-1H-pyrazolo[3,4-b]pyridine-3-carbonyl]phenyl]methanesulfonamide] |
| < 500 nM | CS(=O)(=O)Nc1c(F)ccc(C(=O)c2n[nH]c3ncc(-c4ccc(C(N)=O)cc4)cc23)c1F [Example 54b, 4-[3-[2,4-difluoro-3-(methanesulfonamido)benzoyl]-1H-pyrazolo[3,4-b]pyridin-5-yl]benzamide] |
| < 500 nM | CS(=O)(=O)Nc1c(F)ccc(C(=O)c2n[nH]c3ncc(-c4ccc(S(N)(=O)=O)cc4)cc23)c1F [Example 54c, 4-[3-[2,4-difluoro-3-(methanesulfonamido)benzoyl]-1H-pyrazolo[3,4-b]pyridin-5-yl]benzenesulfonamide] |
| < 500 nM | CS(=O)(=O)Nc1c(F)ccc(C(=O)c2n[nH]c3ncc(-c4ccc(C(=O)O)cc4)cc23)c1F [Example 55, 4-[3-[2,4-difluoro-3-(methanesulfonamido)benzoyl]-1H-pyrazolo[3,4-b]pyridin-5-yl]benzoic acid] |
| < 500 nM | CCCS(=O)(=O)Nc1c(F)ccc(C(=O)c2n[nH]c3ncc(-c4ccccc4Cl)cc23)c1F [Example 64, N-(3-(5-(2-chlorophenyl)-1H-pyrazolo[3,4-b]pyridine-3-carbonyl)-2,6-difluorophenyl)propane-1-sulfonamide] |
| < 500 nM | CCCS(=O)(=O)Nc1c(F)ccc(C(=O)c2n[nH]c3ncc(-c4ccc(O)cc4)cc23)c1F [Example 76, N-(2,6-difluoro-3-(5-(4-hydroxyphenyl)-1H-pyrazolo[3,4-b]pyridine-3-carbonyl)phenyl)propane-1-sulfonamide] |
